Source: article PMC4553411, “Identification of B6T173 (ZmPrx35) as the prevailing peroxidase in highly insect-resistant maize (Zea mays, p84C3) kernels by activity-directed purification” (Frontiers in Plant Science, 2015)

Target: T1, B6T173 (ZmPrx35) (Zea mays, UniProt B6T173)
T1 construct: recombinant from p84C3 cDNA, amplified from start codon to stop codon, pET19b (His-tag), E. coli BL21 (DE3) Rosetta gami; class III peroxidase
Test: in-gel guaiacol-H2O2 activity staining of IMAC fractions
Format: biochemical
Conditions: H2O2 co-substrate; 20 mM guaiacol, 50 mM phosphate pH 6.8

T1 sequence (B6T173 1-339): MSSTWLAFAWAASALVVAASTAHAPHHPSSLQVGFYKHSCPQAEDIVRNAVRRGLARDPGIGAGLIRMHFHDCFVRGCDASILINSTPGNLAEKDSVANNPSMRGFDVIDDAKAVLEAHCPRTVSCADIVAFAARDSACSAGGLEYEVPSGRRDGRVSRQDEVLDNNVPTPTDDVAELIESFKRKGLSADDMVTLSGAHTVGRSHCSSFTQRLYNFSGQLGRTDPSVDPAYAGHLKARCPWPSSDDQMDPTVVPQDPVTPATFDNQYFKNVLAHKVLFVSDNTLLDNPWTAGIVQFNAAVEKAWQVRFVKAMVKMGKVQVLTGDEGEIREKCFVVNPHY

For `COc1ccccc1O` [guaiacol], the “in-gel guaiacol-H2O2 activity staining of IMAC fractions” value was “Guaiacol-H2O2 staining of the same POD fractions”.
